Test results reported in US9073931B2, “Liver X receptor modulators” (Vitae Pharmaceuticals, Inc., priority 2012, dated 2015).
Like-named read-outs stand apart in the source and are kept apart here.

Tests used:
[1] = biological target: T1, LBD of LXRβ (Homo sapiens (Human), UniProt P55055); experiment: cell-based
[2] = biological target: LBD of LXRα (Homo sapiens (Human), UniProt Q13133); experiment: LXR luciferase transcriptional reporter gene assay, LXRα; type: cell-based; details: HEK293 cells, Gal4-LXRα LBD, 16 h, read-out: LXRα CELL EC50
Sequence of LBD of LXRα (Q13133 209-447): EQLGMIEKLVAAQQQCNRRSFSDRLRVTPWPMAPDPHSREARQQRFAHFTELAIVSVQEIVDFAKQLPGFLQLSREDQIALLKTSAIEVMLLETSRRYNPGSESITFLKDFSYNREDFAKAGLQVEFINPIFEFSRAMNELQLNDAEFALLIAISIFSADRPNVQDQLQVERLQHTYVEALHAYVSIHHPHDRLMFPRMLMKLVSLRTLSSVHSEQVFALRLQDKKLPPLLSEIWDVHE

[3] = biological target: LXR β LBD protein (Homo sapiens (Human), UniProt P55055); experiment: LXR β radioligand binding assay (SPA, [3H]T0901317 competition); details: competition with 15 nM [3H]T0901317, LXRβ LBD
Sequence of LXR β LBD protein (P55055 222-460): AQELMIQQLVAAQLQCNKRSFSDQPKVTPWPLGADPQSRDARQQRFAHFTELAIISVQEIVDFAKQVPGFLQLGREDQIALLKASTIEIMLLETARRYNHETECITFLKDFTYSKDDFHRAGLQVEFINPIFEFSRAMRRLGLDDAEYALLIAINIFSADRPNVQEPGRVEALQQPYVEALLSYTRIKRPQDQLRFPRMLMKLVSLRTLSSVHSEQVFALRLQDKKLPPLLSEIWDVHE

[4] = biological target: LXR α LBD protein (Homo sapiens (Human), UniProt Q13133); experiment: LXR α radioligand binding assay (SPA, [3H]T0901317 competition)
Sequence of LXR α LBD protein (Q13133 209-447): as the sequence (Q13133 209-447) above

[5] = biological target: T1, LBD of LXRβ
[6] = competition with 15 nM [3H]T0901317, LXRα LBD

T1 sequence (P55055 222-460): as the sequence (P55055 222-460) above

## Cc1nc(N2CCn3c(nc4cc(CO)c(S(C)(=O)=O)cc43)[C@H]2C(C)C)ncc1CO [Compound E19, (R)-(2-(8-(hydroxymethyl)-1-isopropyl-7-(methylsulfonyl)-3,4-dihydrobenzo[4,5]imidazo[1,2-a]pyrazin-2(1H)-yl)-4-methylpyrimidin-5-yl)methanol]
[1]
  EC50: > 20 µM
[2]
  EC50: > 20 µM
[3]
  Ki: > 2.5 µM
[4]; [6]
  Ki: > 3.33 µM

## CNC(=O)c1cnc(N2CCn3c(nc4cc(CO)c(S(C)(=O)=O)cc43)[C@H]2C(C)C)nc1C(F)(F)F (single isomer, unassigned) [Compound E16a]
[2]
  EC50: > 20 µM
[4]; read-out: LXRα BINDING Ki
  Ki: > 3.33 µM

## CC(C)[C@@H]1c2nc3cc(CO)c(S(C)(=O)=O)cc3n2CCN1c1ncc(C(=O)O)c(C(F)(F)F)n1 (single isomer, unassigned) [Compound E14a]
[1]
  EC50: 7.54 µM
[2]
  EC50: > 20 µM
[3]
  Ki: > 2.5 µM
[4]; read-out: LXRα BINDING Ki
  Ki: > 3.33 µM

## CC(C)[C@H]1c2nc3cc(CO)c(S(C)(=O)=O)cc3n2CCN1c1ncc(C(=O)O)c(C(F)(F)F)n1 (single isomer, unassigned) [Compound E14b]
[1]
  EC50: > 20 µM
[2]
  EC50: > 20 µM
[3]
  Ki: > 2.5 µM
[4]; read-out: LXRα BINDING Ki
  Ki: > 3.33 µM

## CCOC(=O)c1cnc(N2CCn3c(nc4ccc(S(C)(=O)=O)cc43)C2C(C)C)nc1C(F)(F)F (racemic) [Compound E3, Ethyl 2-(1-isopropyl-7-(methylsulfonyl)-3,4-dihydrobenzo[4,5]imidazo[1,2-a]pyrazin-2(1H)-yl)-4-(trifluoromethyl)pyrimidine-5-carboxylate]
[1]
  EC50: 4.62 µM
[2]
  EC50: 17.3 µM
[3]
  Ki: 1.16 µM
[4]; [6]
  Ki: > 3.33 µM

## CNC(=O)c1cnc(N2CCn3c(nc4cc(CO)c(S(C)(=O)=O)cc43)[C@@H]2C(C)C)nc1C(F)(F)F (single isomer, unassigned) [Compound E16b]
[2]
  EC50: > 20 µM
[4]; read-out: LXRα BINDING Ki
  Ki: > 3.33 µM

## CC(O)c1cnc(N2CCn3c(cc4ccc(S(C)(=O)=O)cc43)C2C(C)C)nc1C(F)(F)F (single isomer, unassigned) [Compound E24d, 1-(2-(1-isopropyl-7-(methylsulfonyl)-3,4-dihydropyrazino[1,2-a]indol-2(1H)-yl)-4-(trifluoromethyl)pyrimidin-5-yl)ethanol]
[5]
  EC50: > 20 µM
[3]
  Ki: > 2.5 µM

## CC(C)C1c2nc3ccc(S(C)(=O)=O)cc3n2CCN1c1ncc(C(N)=O)c(C(F)(F)F)n1 (racemic) [Compound E5, 2-(1-isopropyl-7-(methylsulfonyl)-3,4-dihydrobenzo[4,5]imidazo[1,2-a]pyrazin-2(1H)-yl)-4-(trifluoromethyl)pyrimidine-5-carboxamide]
[1]
  EC50: 2.69 µM
[2]
  EC50: > 20 µM
[3]
  Ki: > 2.5 µM
[4]; [6]
  Ki: > 3.33 µM
